In patent US12428406B2 (PMV Pharmaceuticals, Inc., priority 2019, dated 2025):

target: T1, p53 Y220C (Homo sapiens, UniProt P04637, Y220C); assay: In vitro DNA binding activity assay (HTRF / TR-FRET): stabilization of p53 Y220C and increase of its DNA binding activity; type: biochemical; settings: recombinant His-tagged p53 Y220C DNA binding domain (aa 94-312), biotin-labeled consensus DNA, incubated at 27° C. or 29° C. for 60 min
T1 construct: The recombinant protein was a truncation mutant containing only amino acids 94-312 of p53; made in house; host or cells: E. coli
T1 sequence (P04637 94-312, change not shown): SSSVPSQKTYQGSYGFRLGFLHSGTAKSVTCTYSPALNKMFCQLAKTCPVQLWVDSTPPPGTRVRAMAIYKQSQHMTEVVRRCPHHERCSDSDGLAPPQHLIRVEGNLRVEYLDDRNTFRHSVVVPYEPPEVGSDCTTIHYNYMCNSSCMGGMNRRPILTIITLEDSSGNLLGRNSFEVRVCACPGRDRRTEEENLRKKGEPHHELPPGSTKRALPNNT
Method in brief: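 Stabilization of the mutant is inferred from increased binding of His-tagged p53 Y220C to a biotin-labeled consensus DNA, detected by HTRF with europium-streptavidin and APC-anti-His antibody. The concentration giving a 50% rise over compound-free binding is reported as SC150.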

**Q.** For `COc1cc(S(=O)(=O)Nc2ccon2)ccc1NCC#Cc1cc2c(N[C@H]3CC[C@H](N(C)C)CC3)cccc2n1CC(F)(F)F` [Compound 48A, 3-methoxy-N-(1,2-oxazol-3-yl)-4-{[3-(4-{[(1R,4R)-4-(dimethylamino)cyclo-hexyl]amino}-l-(2,2,2-trifluoroethyl)-1H-indol-2-yl)prop-2-yn-1-yl]amino}benzene-1-sulfonamide], which “SC150 (concentration of the compound required to increase the DNA binding activity by 50%)” value is on record?
**A.** Its value is “+ (+ = 0 μM ≤ SC150 < 0.05 μM)”.

**Q.** With `COC(=O)c1ccc(NCC#Cc2cc3c(N[C@@H]4CCN(CCO)C[C@@H]4F)cccc3n2CC(F)(F)F)c(OC)c1` [Compound 899A, methyl 4-{[3-(4-{[(3S,4R)-3-fluoro-1-(2-hydroxyethyl)piperidin-4-yl]amino}-1-(2,2,2-trifluoroethyl)-1H-indol-2-yl)prop-2-yn-1-yl]amino}-3-methoxybenzoate] as the molecule, how does the “SC150 (concentration of the compound required to increase the DNA binding activity by 50%)” value read?
**A.** Its value is “+ (+ = 0 μM ≤ SC150 < 0.05 μM)”.

**Q.** With `CS(=O)(=O)c1ccc(NCC#Cc2cc3c(N[C@H]4CC[C@@H](N5CCOCC5)CC4)cccc3n2CC(F)(F)F)c(OCC#N)c1` [Compound 186A, 2-(5-methanesulfonyl-2-{[3-(4-{[(1S,4S)-4-(morpholin-4-yl)cyclohexyl]amino}-1-(2,2,2-trifluoroethyl)-1H-indol-2-yl)prop-2-yn-1-yl]amino}phenoxy)acetonitrile] as the molecule, how does the “SC150 (concentration of the compound required to increase the DNA binding activity by 50%)” value read?
**A.** The value was “+ (+ = 0 μM ≤ SC150 < 0.05 μM)”.

**Q.** Which “SC150 (concentration of the compound required to increase the DNA binding activity by 50%)” value does the source give for `COc1cc(S(C)(=O)=O)ccc1NCC#Cc1cc2c(N[C@H]3CC[C@H](N4CCC(S(C)(=O)=O)CC4)CC3)cccc2n1CC(F)(F)F` [Compound 442A, 2-{3-[(4-methane-sulfonyl-2-methoxy-phenyl)amino]prop-1-yn-1-yl}-N-[(1R,4R)-4-(4-methanesulfonylpiperidin-1-yl)cyclohexyl]-1-(2,2,2-trifluoroethyl)-1H-indol-4-amine] here?
**A.** Its value is “+ (+ = 0 μM ≤ SC150 < 0.05 μM)”.

**Q.** For `COc1cc(S(C)(=O)=O)ccc1NCC#Cc1cc2c(N[C@H]3CC[C@H](N4CCOCC4)CC3)cccc2n1CC#N` [Compound 174A, 2-(2-{3-[(4-methane-sulfonyl-2-methoxy-phenyl)amino]prop-1-yn-1-yl}-4-{[(1R,4R)-4-(morpholin-4-yl)cyclo-hexyl]amino}-1H-indol-1-yl)acetonitrile], which “SC150 (concentration of the compound required to increase the DNA binding activity by 50%)” value is on record?
**A.** Its value is “+ (+ = 0 μM ≤ SC150 < 0.05 μM)”.

**Q.** How did the “SC150 (concentration of the compound required to increase the DNA binding activity by 50%)” value turn out when `COc1cc(C(=O)O)c(F)cc1NCC#Cc1cc2c(N[C@H]3CC[C@H](N4CC5(COC5)C4)CC3)cccc2n1CC(F)(F)F` [Compound 281A, 2-fluoro-5-methoxy-4-{[3-(4-{[(1R,4R)-4-{2-oxa-6-azaspiro[3.3]heptan-6-yl}cyclohexyl]amino}-1-(2,2,2-trifluoroethyl)-1H-indol-2-yl)prop-2-yn-1-yl]amino}benzoic acid] was run?
**A.** Its value is “+ (+ = 0 μM ≤ SC150 < 0.05 μM)”.

**Q.** Which “SC150 (concentration of the compound required to increase the DNA binding activity by 50%)” value does the source give for `COCCN1CC[C@H](Nc2cccc3c2cc(C#CCNc2ccc(S(C)(=O)=O)cc2OC)n3CC(F)(F)F)[C@H](F)C1` [Compound 860A, N-[(3R,4S)-3-fluoro-1-(2-methoxyethyl)piperidin-4-yl]-2-{3-[(4-methanesulfonyl-2-methoxyphenyl)amino]prop-1-yn-1-yl}-1-(2,2,2-trifluoroethyl)-1H-indol-4-amine] here?
**A.** Its value is “+ (+ = 0 μM ≤ SC150 < 0.05 μM)”.

**Q.** With `CNC(=O)c1ccc(NCC#Cc2cc3c(N[C@H]4CC[C@H](N(C)CCOC)CC4)cccc3n2CC(F)(F)F)c(OC)c1` [Compound 151A, 3-methoxy-N-methyl-4-{[3-(4-{[(1R,4R)-4-[(2-methoxyethyl) (methyl)amino]cyclo-hexyl]amino}-1-(2,2,2-trifluoroethyl)-1H-indol-2-yl)prop-2-yn-1-yl]amino}benzamide] as the molecule, how does the “SC150 (concentration of the compound required to increase the DNA binding activity by 50%)” value read?
**A.** Its value is “+ (+ = 0 μM ≤ SC150 < 0.05 μM)”.

**Q.** Which “SC150 (concentration of the compound required to increase the DNA binding activity by 50%)” value does the source give for `COc1cc(C(N)=O)ccc1NCC#Cc1cc2c(N[C@H]3CCN(C)C[C@H]3F)cccc2n1CC(F)(F)F` [Compound 801A, 4-{[3-(4-{[(3R,4S)-3-fluoro-1-methylpiperidin-4-yl]amino}-1-(2,2,2-trifluoroethyl)-1H-indol-2-yl)prop-2-yn-1-yl]amino}-3-methoxybenzamide] here?
**A.** Its value is “+ (+ = 0 μM ≤ SC150 < 0.05 μM)”.

**Q.** Which “SC150 (concentration of the compound required to increase the DNA binding activity by 50%)” value does the source give for `CCOC(=O)c1ccc(NCC#Cc2cc3c(N[C@H]4CCN(C(C)C)C[C@H]4F)cccc3n2CC(F)(F)F)c(OC)c1` [Compound 825A] here?
**A.** Its value is “+ (+ = 0 μM ≤ SC150 < 0.05 μM)”.

**Q.** With `CCN1CC[C@H](Nc2cccc3c2cc(C#CCNc2ccc(C(=O)O)cc2OC)n3CC(F)(F)F)[C@H](F)C1` [Compound 828A, 4-{[3-(4-{[(3R,4S)-1-ethyl-3-fluoropiperidin-4-yl]amino}-1-(2,2,2-trifluoroethyl)-1H-indol-2-yl)prop-2-yn-1-yl]amino}-3-methoxybenzoic acid] as the molecule, how does the “SC150 (concentration of the compound required to increase the DNA binding activity by 50%)” value read?
**A.** The value was “+ (+ = 0 μM ≤ SC150 < 0.05 μM)”.

**Q.** With `COc1cc(S(N)(=O)=O)ccc1NCC#Cc1cc2c(NC3CCC(=O)CC3)cccc2n1CC(F)(F)F` [Compound 65A, 3-methoxy-4-[(3-{4-[(4-oxocyclohexyl)amino]-1-(2,2,2-trifluoroethyl)-1H-indol-2-yl}prop-2-yn-1-yl)amino]benzene-1-sulfonamide] as the molecule, how does the “SC150 (concentration of the compound required to increase the DNA binding activity by 50%)” value read?
**A.** Its value is “+ (+ = 0 μM ≤ SC150 < 0.05 μM)”.

**Q.** How did the “SC150 (concentration of the compound required to increase the DNA binding activity by 50%)” value turn out when `CCC(=O)NS(=O)(=O)c1ccc(NCC#Cc2cc3c(N[C@H]4CC[C@H](N5CC6(COC6)C5)CC4)cccc3n2CC(F)(F)F)c(OC)c1` [Compound 206A, N-(3-methoxy-4-{[3-(4-{[(1R,4R)-4-{2-oxa-6-azaspiro[3.3]heptan-6-yl}cyclo-hexyl]amino}-1-(2,2,2-trifluoroethyl)-1H-indol-2-yl)prop-2-yn-1-yl]amino}benzene-sulfonyl)propanamide] was run?
**A.** Its value is “+ (+ = 0 μM ≤ SC150 < 0.05 μM)”.

**Q.** Which “SC150 (concentration of the compound required to increase the DNA binding activity by 50%)” value does the source give for `CNS(=O)(=O)c1ccc(NCC#Cc2cc3c(NC4CCOCC4)cccc3n2CC(F)(F)F)c(OC)c1` [Compound 1008A] here?
**A.** Its value is “+ (+ = 0 μM ≤ SC150 < 0.05 μM)”.

**Q.** With `CC(C)C(=O)Oc1cc(S(C)(=O)=O)ccc1NCC#Cc1cc2c(N[C@H]3CC[C@H](N4CC5(COC5)C4)CC3)cccc2n1CC(F)(F)F` [Compound 228A, 5-methanesulfonyl-2-{[3-(4-{[(1R,4R)-4-{2-oxa-6-azaspiro[3.3]heptan-6-yl}cyclohexyl]amino}-1-(2,2,2-trifluoroethyl)-1H-indol-2-yl)prop-2-yn-1-yl]amino}phenyl 2-methylpropanoate] as the molecule, how does the “SC150 (concentration of the compound required to increase the DNA binding activity by 50%)” value read?
**A.** The value was “+ (+ = 0 μM ≤ SC150 < 0.05 μM)”.

**Q.** With `COc1cc(C(=O)O)ccc1NCC#Cc1cc2c(N[C@H]3CCN(C(C)C)C[C@H]3F)cccc2n1CC(F)(F)F` [Compound 810A, 4-{[3-(4-{[(3R,4S)-3-fluoro-1-(propan-2-yl)piperidin-4-yl]amino}-1-(2,2,2-trifluoroethyl)-1H-indol-2-yl)prop-2-yn-1-yl]amino}-3-methoxybenzoic acid] as the molecule, how does the “SC150 (concentration of the compound required to increase the DNA binding activity by 50%)” value read?
**A.** The value was “+ (+ = 0 μM ≤ SC150 < 0.05 μM)”.

**Q.** Which “SC150 (concentration of the compound required to increase the DNA binding activity by 50%)” value does the source give for `CNC(=O)c1ccc(NCC#Cc2cc3c(NC4CCC(N5CC6(COC6)C5)CC4)cccc3n2CC(F)(F)F)c(OCF)c1` [Compound 253A, 3-(fluoromethoxy)-N-methyl-4-{[3-(4-{[(1R,4R)-4-{2-oxa-6-azaspiro[3.3]heptan-6-yl}cyclohexyl]amino}-1-(2,2,2-trifluoroethyl)-1H-indol-2-yl)prop-2-yn-1-yl]amino} benzamide] here?
**A.** The value was “+ (+ = 0 μM ≤ SC150 < 0.05 μM)”.

**Q.** How did the “SC150 (concentration of the compound required to increase the DNA binding activity by 50%)” value turn out when `CNC(=O)c1cc(OC)c(NCC#Cc2cc3c(N[C@@H]4CCN(C)C[C@@H]4F)cccc3n2CC(F)(F)F)cn1` [Compound 1065A, 5-{[3-(4-{[(3S,4R)-3-fluoro-1-methylpiperidin-4-yl]amino}-1-(2,2,2-trifluoroethyl)-1H-indol-2-yl)prop-2-yn-1-yl]amino}-4-methoxy-N-methylpyridine-2-carboxamide] was run?
**A.** The value was “+ (+ = 0 μM ≤ SC150 < 0.05 μM)”.

**Q.** For `COc1cc(S(C)(=O)=O)c(F)cc1NCC#Cc1cc2c(NC3CCN(C)CC3)cccc2n1CC(F)(F)F` [Compound 522A, 2-{3-[(5-fluoro-4-methanesulfonyl-2-methoxyphenyl)amino]prop-1-yn-1-yl}-N-(1-methylpiperidin-4-yl)-1-(2,2,2-trifluoroethyl)-1H-indol-4-amine], which “SC150 (concentration of the compound required to increase the DNA binding activity by 50%)” value is on record?
**A.** The value was “+ (+ = 0 μM ≤ SC150 < 0.05 μM)”.

**Q.** How did the “SC150 (concentration of the compound required to increase the DNA binding activity by 50%)” value turn out when `CNC(=O)c1ccc(NCC#Cc2cc3c(N[C@H]4CCN(C)C[C@H]4F)cccc3n2CC(F)(F)F)c(OC)c1` (racemic) [Compound 783A, 4-[3-[4-[[(3R,4S)-3-fluoro-1-methyl-4-piperidyl]amino]-1-(2,2,2-trifluoroethyl)indol-2-yl]prop-2-ynylamino]-3-methoxy-N-methyl-benzamide] was run?
**A.** The value was “+ (+ = 0 μM ≤ SC150 < 0.05 μM)”.

**Q.** `COc1cc(S(=O)(=O)NC2CCOCC2)ccc1NCC#Cc1cc2c(N[C@H]3CC[C@@H](N(C)C)CC3)cccc2n1CC(F)(F)F` [Compound 51A, 3-methoxy-N-(oxan-4-yl)-4-{[3-(4-{[(1S,4S)-4-(dimethylamino)cyclohexyl]amino}-1-(2,2,2-trifluoroethyl)-1H-indol-2-yl)prop-2-yn-1-yl]amino}benzene-1-sulfonamide] was tested. Which “SC150 (concentration of the compound required to increase the DNA binding activity by 50%)” value did it give?
**A.** The value was “+ (+ = 0 μM ≤ SC150 < 0.05 μM)”.

**Q.** How did the “SC150 (concentration of the compound required to increase the DNA binding activity by 50%)” value turn out when `COc1cc(S(C)(=O)=O)ccc1NCC#Cc1cc2c(NC3CCN(C[C@H]4COC(=O)O4)CC3)cccc2n1CC(F)(F)F` [Compound 578A, (4S)-4-({4-[(2-{3-[(4-methanesulfonyl-2-methoxyphenyl)amino]prop-1-yn-1-yl}-1-(2,2,2-trifluoroethyl)-1H-indol-4-yl)amino]pipendin-1-yl}methyl)-1,3-dioxolan-2-one] was run?
**A.** Its value is “+ (+ = 0 μM ≤ SC150 < 0.05 μM)”.
